The text below walks through data of ChEMBL document CHEMBL1909046, “DrugMatrix in vitro pharmacology data”.

One test addresses Acetylcholinesterase (Homo sapiens, UniProt P22303). As to the kind of experiment: DRUGMATRIX: Acetylcholinesterase enzyme inhibition (substrate: acetylthiocholine). The format is cell-based, HEK293. To be noted: Not Active = under 50% inhibition at 10 µM.
In test [1] the target is Mitogen-activated protein kinase 14 (Homo sapiens, UniProt Q16539). More on the design: species or system Escherichia coli.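 Note: inhibition of p38alpha enzyme activity in a biochemical kinase assay, with myelin basic protein serving as substrate; in other assays of this panel Not Active means under 50% inhibition at 10 µM.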
Mitogen-activated protein kinase 14, sequence (Q16539 whole entry): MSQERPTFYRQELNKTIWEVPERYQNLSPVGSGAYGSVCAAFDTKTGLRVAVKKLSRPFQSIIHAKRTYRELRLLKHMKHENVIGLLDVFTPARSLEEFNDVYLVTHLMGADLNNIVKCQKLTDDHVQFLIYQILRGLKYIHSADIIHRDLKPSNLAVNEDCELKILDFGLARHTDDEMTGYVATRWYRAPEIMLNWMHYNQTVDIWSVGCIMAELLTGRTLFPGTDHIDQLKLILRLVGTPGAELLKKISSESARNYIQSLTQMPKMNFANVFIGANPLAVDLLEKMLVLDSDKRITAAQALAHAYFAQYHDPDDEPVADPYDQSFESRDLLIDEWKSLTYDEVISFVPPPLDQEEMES
A short description of test [2]: DRUGMATRIX: Platelet-Derived Growth Factor (PDGF) radioligand binding (ligand: [125I] PDGF). To be noted: nih3t3; Not Active = under 50% inhibition at 10 µM. Type of test: cell-based.
Test [3] concerns the target T1, C-X-C chemokine receptor type 2 (Homo sapiens, UniProt P25025). Note: in other assays of this panel Not Active means under 50% inhibition at 10 µM.
T1 sequence (P25025 whole entry): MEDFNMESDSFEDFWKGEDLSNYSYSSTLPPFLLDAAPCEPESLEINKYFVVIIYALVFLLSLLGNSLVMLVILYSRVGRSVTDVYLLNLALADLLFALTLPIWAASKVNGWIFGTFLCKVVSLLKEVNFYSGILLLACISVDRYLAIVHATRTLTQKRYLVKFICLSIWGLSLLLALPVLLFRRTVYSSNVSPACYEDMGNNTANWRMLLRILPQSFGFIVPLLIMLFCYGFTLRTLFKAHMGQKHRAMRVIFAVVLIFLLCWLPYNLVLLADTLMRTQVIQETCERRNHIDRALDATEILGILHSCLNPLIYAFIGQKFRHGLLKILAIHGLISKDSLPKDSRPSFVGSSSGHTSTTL
The format is cell membranes, Membrane. To be noted: cho-k1.

Test [4] deals with C-C chemokine receptor type 5 (Homo sapiens, UniProt P51681). The format is cell membranes, Membrane. To be noted: hek293.
C-C chemokine receptor type 5, sequence (P51681 whole entry): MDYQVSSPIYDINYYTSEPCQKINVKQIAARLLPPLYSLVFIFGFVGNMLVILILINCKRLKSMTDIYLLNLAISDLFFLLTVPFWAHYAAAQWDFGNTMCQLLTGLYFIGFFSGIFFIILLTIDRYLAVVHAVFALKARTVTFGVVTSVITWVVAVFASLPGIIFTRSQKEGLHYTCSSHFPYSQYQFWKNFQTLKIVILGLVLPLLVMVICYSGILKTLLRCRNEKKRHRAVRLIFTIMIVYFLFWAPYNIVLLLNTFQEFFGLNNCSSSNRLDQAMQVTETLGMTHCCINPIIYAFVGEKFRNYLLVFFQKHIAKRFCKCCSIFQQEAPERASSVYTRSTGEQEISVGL
For test [5], the target named is Sodium-dependent noradrenaline transporter (Homo sapiens, UniProt P23975). As to the kind of experiment: DRUGMATRIX: Norepinephrine Transporter radioligand binding (ligand: [125I] RTI-55). Type of test: cell membranes, MDCK, Membrane. To be noted: mdck; Not Active = under 50% inhibition at 10 µM.
Sodium-dependent noradrenaline transporter, sequence (P23975 whole entry): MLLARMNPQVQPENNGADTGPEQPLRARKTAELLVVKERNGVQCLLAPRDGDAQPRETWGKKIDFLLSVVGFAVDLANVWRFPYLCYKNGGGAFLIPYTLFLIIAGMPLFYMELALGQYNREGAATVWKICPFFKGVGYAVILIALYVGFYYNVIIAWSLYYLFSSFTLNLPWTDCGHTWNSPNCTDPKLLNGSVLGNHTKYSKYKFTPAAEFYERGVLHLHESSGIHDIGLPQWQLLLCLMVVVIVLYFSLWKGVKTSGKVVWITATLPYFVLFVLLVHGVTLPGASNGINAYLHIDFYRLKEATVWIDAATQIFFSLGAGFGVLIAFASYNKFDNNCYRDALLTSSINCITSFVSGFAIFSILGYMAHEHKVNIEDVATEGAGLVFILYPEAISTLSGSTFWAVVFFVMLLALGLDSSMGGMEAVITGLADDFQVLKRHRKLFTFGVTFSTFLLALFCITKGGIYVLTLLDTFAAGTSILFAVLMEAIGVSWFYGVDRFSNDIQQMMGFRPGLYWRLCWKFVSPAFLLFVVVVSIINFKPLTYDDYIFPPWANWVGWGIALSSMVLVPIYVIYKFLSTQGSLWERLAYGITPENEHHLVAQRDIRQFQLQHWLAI
Test [6] deals with T2, Alpha-1A adrenergic receptor (Rattus norvegicus, UniProt P43140).
T2 sequence (P43140 whole entry): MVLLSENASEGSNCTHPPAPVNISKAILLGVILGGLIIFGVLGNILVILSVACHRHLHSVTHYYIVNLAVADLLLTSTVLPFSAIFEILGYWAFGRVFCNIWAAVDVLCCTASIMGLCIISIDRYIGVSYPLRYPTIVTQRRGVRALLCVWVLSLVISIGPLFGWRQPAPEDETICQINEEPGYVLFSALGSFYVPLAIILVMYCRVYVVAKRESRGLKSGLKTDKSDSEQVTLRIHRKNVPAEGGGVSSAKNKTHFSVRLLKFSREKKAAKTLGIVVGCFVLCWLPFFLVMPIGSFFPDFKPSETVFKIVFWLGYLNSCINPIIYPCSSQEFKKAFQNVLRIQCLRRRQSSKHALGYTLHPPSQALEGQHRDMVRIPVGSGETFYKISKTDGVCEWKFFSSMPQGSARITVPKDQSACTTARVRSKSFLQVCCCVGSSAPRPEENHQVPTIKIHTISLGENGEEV
As to the kind of experiment: DRUGMATRIX: Alpha-1A adrenergic receptor radioligand binding (ligand: prazosin). The format is cell membranes, Wistar, Submaxillary gland, Membrane. To be noted: Not Active = under 50% inhibition at 10 µM.

Acetylcholinesterase, sequence (P22303 whole entry): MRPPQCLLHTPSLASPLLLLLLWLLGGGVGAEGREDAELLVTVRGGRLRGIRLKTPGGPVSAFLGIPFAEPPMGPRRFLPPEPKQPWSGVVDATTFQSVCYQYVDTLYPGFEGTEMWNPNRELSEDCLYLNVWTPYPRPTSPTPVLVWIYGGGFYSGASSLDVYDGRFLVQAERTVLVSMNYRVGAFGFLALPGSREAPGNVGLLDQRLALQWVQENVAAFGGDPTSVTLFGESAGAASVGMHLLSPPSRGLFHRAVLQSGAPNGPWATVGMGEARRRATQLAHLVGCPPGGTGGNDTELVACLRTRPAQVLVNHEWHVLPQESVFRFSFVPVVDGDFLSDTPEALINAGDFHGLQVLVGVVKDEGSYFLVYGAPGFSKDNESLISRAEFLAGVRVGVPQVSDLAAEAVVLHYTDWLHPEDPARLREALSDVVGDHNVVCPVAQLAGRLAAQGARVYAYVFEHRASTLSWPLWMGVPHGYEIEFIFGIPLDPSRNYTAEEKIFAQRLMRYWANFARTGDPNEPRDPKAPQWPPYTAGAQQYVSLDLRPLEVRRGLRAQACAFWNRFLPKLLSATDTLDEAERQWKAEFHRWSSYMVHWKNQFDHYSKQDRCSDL

As a reminder, the IC50 is the concentration needed to halve the response being measured. As usually defined, the Ki is a dissociation constant, usually derived from enzyme kinetics or from competition with a known ligand. With `CCCN1C[C@H](CSC)C[C@@H]2c3cccc4[nH]cc(c34)C[C@H]21` [PERGOLIDE], the IC50 entry (on Acetylcholinesterase (hek293); in test [1]; in test [2]; in test [3]; in test [4]; in test [5]) was “Not Active” throughout. Besides, the half-maximal inhibitory concentration (IC50) in test [6] (read-out: IC50) amounted to 1930 nM. For the same molecule, the Ki result in test [2] was “Not Active”; in test [6] (read-out: Ki) it was 781 nM.

LIPOPOLYSACCHARIDE E. COLI O55:B5: the IC50 entry is “Not Active” against Acetylcholinesterase (hek293); 60.6 nM in test [1] (read-out: IC50); “Not Active” in test [2]; “Not Active” in test [3]; “Not Active” in test [4]; “Not Active” in test [5]. The 50% inhibitory concentration (IC50) entry in test [6] was “Not Active”. Moreover, the Ki result (at Acetylcholinesterase (hek293); in test [2]; in test [3]; in test [4]; in test [5]; in test [6]) was “Not Active” in each case.

`CC(O)CO` (stereo unspecified) [PROPYLENE GLYCOL]: the concentration for half-maximal inhibition (IC50) result (against Acetylcholinesterase (hek293); in test [1]; in test [2]; in test [3]; in test [4]; in test [5]) was “Not Active” each time. Also, the half-maximal inhibitory concentration (IC50) entry in test [6] is “Not Active”. In addition, in test [2], the Ki result was “Not Active”.

Take `CC(C)C(Br)C(=O)NC(N)=O` (stereo unspecified) [BROMISOVALUM]: the IC50 entry (on Acetylcholinesterase (hek293); in test [1]; in test [2]; in test [3]; in test [4]; in test [5]) was “Not Active” in each case. Also, the IC50 result in test [6] was “Not Active”. Besides, the Ki entry in test [2] is “Not Active”.

For the molecule `CCC(C)n1ncn(-c2ccc(N3CCN(c4ccc(OCC5COC(Cn6cncn6)(c6ccc(Cl)cc6Cl)O5)cc4)CC3)cc2)c1=O` (stereo unspecified) [ITRACONAZOLE], the half-inhibitory concentration (IC50) result (against Acetylcholinesterase (hek293); in test [1]; in test [2]; in test [3]; in test [4]; in test [5]) was “Not Active” throughout. The half-inhibitory concentration (IC50) result in test [6] was “Not Active”. Further, the Ki result in test [2] is reported as “Not Active”.

Take `Nc1c(Br)cc(Br)cc1CN[C@H]1CC[C@H](O)CC1` [AMBROXOL]: the IC50 result (on Acetylcholinesterase (hek293); in test [1]; in test [2]; in test [3]; in test [4]; in test [5]) was “Not Active” throughout. Further, the concentration for half-maximal inhibition (IC50) entry in test [6] is given as “Not Active”. Further, the Ki result in test [2] is on record as “Not Active”.

In the case of `CC(C)(C)NCC(O)c1cc(Cl)c(N)c(Cl)c1` (stereo unspecified) [CLENBUTEROL], the IC50 entry (at Acetylcholinesterase (hek293); in test [1]; in test [2]; in test [3]; in test [4]; in test [5]) was “Not Active” each time. Moreover, in test [6], the 50% inhibitory concentration (IC50) entry is “Not Active”. Also, in test [2], the inhibition constant Ki result is “Not Active”.

For `C[C@](N)(Cc1ccc(O)c(O)c1)C(=O)O` [METHYLDOPA], the half-inhibitory concentration (IC50) result (against Acetylcholinesterase (hek293); in test [1]; in test [2]; in test [3]; in test [4]; in test [5]) was “Not Active” throughout. The concentration for half-maximal inhibition (IC50) result in test [6] was “Not Active”. Also, the inhibition constant (Ki) result in test [2] was “Not Active”.

In the case of `Cc1ccccc1N1C(=O)c2cc(S(N)(=O)=O)c(Cl)cc2NC1C` (stereo unspecified) [METOLAZONE], the concentration for half-maximal inhibition (IC50) entry (against Acetylcholinesterase (hek293); in test [1]; in test [2]; in test [3]; in test [4]; in test [5]) was “Not Active” in each case. Moreover, in test [6], the half-maximal inhibitory concentration (IC50) entry is “Not Active”. Besides, the Ki entry in test [2] is given as “Not Active”.

On to `Nc1nc2c(ncn2CCC(CO)CO)c(=O)[nH]1` [PENCICLOVIR], for which the concentration for half-maximal inhibition (IC50) entry (against Acetylcholinesterase (hek293); in test [1]; in test [2]; in test [3]; in test [4]; in test [5]) was “Not Active” each time. Further, the IC50 entry in test [6] is recorded as “Not Active”. For the same molecule, the inhibitory constant (Ki) result in test [2] was “Not Active”.

As to `CCOc1ccc(NC(C)=O)cc1` [PHENACETIN], the 50% inhibitory concentration (IC50) entry (at Acetylcholinesterase (hek293); in test [1]; in test [2]; in test [3]; in test [4]; in test [5]) was “Not Active” throughout. Besides, the half-maximal inhibitory concentration (IC50) entry in test [6] is given as “Not Active”. For the same molecule, in test [2], the inhibition constant (Ki) entry is “Not Active”.

For `Cc1cc(C(C#N)c2ccc(Cl)cc2)c(Cl)cc1NC(=O)c1cc(I)cc(I)c1O` (stereo unspecified) [CLOSANTEL], the IC50 at Acetylcholinesterase (read-out: IC50) is 2950 nM; in test [1] (read-out: IC50) it was 656 nM; in test [2] it was “Not Active”; in test [3] it was “Not Active”; in test [4], “Not Active”; in test [5] it was “Not Active”. Also, the IC50 entry in test [6] is “Not Active”. In test [2], the inhibition constant (Ki) entry is “Not Active”.

For the molecule `C[C@]12CC[C@@H]3c4ccc(O)cc4CC[C@H]3[C@@H]1CCC2=O` [ESTRONE], the IC50 result (on Acetylcholinesterase (hek293); in test [1]; in test [2]; in test [3]; in test [4]; in test [5]) was “Not Active” in each case. Moreover, the concentration for half-maximal inhibition (IC50) result in test [6] was “Not Active”. For the same molecule, the Ki result in test [2] is “Not Active”.

Regarding `NC1=NC(=O)C(c2ccccc2)O1` (stereo unspecified) [PEMOLINE], the IC50 result (at Acetylcholinesterase (hek293); in test [1]; in test [2]; in test [3]; in test [4]; in test [5]) was “Not Active” in each case. For the same molecule, the half-inhibitory concentration (IC50) entry in test [6] is recorded as “Not Active”. Besides, the Ki entry in test [2] is “Not Active”.

`CN(C)C(=O)Oc1cc(OC(=O)N(C)C)cc(C(O)CNC(C)(C)C)c1` (stereo unspecified) [BAMBUTEROL]: the IC50 entry (at Acetylcholinesterase (hek293); in test [1]; in test [2]; in test [3]; in test [4]; in test [5]) was “Not Active” throughout. Besides, the IC50 result in test [6] was “Not Active”. In addition, in test [2], the inhibition constant Ki entry is “Not Active”.

For `C[C@H]1c2cccc(O)c2C(=O)C2=C(O)[C@]3(O)C(=O)C(C(N)=O)=C(O)[C@@H](N(C)C)[C@@H]3[C@@H](O)[C@@H]21.O` [DOXYCYCLINE], the 50% inhibitory concentration (IC50) result (on Acetylcholinesterase (hek293); in test [1]; in test [2]; in test [3]; in test [4]; in test [5]) was “Not Active” throughout. In addition, the half-inhibitory concentration (IC50) entry in test [6] is “Not Active”. In test [2], the inhibitory constant (Ki) result is reported as “Not Active”.

With `CC1(C)S[C@@H]2[C@H](NC(=O)Cc3ccccc3)C(=O)N2[C@H]1C(=O)O` [PENICILLIN G], the IC50 result (at Acetylcholinesterase (hek293); in test [1]; in test [2]; in test [3]; in test [4]; in test [5]) was “Not Active” in each case. In test [6], the IC50 result was “Not Active”. For the same molecule, the inhibitory constant (Ki) result in test [2] is listed as “Not Active”.

Take `C[C@H]1O[C@@H](O[C@H]2[C@@H](O)C[C@H](O[C@H]3[C@@H](O)C[C@H](O[C@H]4CC[C@@]5(C)[C@H](CC[C@@H]6[C@@H]5C[C@@H](O)[C@]5(C)[C@@H](C7=CC(=O)OC7)CC[C@]65O)C4)O[C@@H]3C)O[C@@H]2C)C[C@H](O)[C@@H]1O` [DIGOXIN]: the concentration for half-maximal inhibition (IC50) entry (against Acetylcholinesterase (hek293); in test [1]; in test [2]; in test [3]; in test [4]; in test [5]) was “Not Active” in each case. For the same molecule, the half-inhibitory concentration (IC50) result in test [6] is reported as “Not Active”. For the same molecule, the Ki result in test [2] was “Not Active”.

As for `c1ccc2c(c1)c1cccc3ccc4cccc2c4c31` [BENZO[E]PYRENE], the half-inhibitory concentration (IC50) entry (on Acetylcholinesterase (hek293); in test [1]; in test [2]; in test [3]; in test [4]; in test [5]) was “Not Active” in each case. The IC50 result in test [6] is “Not Active”. Moreover, in test [2], the Ki entry is on record as “Not Active”.

Turning to `Sc1ncnc2nc[nH]c12` [MERCAPTOPURINE ANHYDROUS], the half-maximal inhibitory concentration (IC50) result (at Acetylcholinesterase (hek293); in test [1]; in test [2]; in test [3]; in test [4]; in test [5]) was “Not Active” each time. Moreover, the IC50 result in test [6] is given as “Not Active”. Besides, in test [2], the Ki result was “Not Active”.
